The text below walks through data of patent EP0976707A1, “CYCLOALKYL BENZYL ETHER COMPOUNDS” (Nissan Chemical Industries, Ltd., priority 1997, dated 1998).

Format in all cases: in vivo
The test system of one data set is rice plant. In words: Phytotoxicity test under shallow planting conditions for rice plant (Test Example 4). The following applies: aerial part, three weeks after the treatment. An excerpt:
[Test Example 4] Phytotoxicity test under shallow planting conditions for rice plant In a 1/5,000-are Wagner pot was filled alluvial soil, which was mixed with water introduced therein to establish submerged conditions at a water depth of 4 cm. Rice seedlings at 2.5 leaf stage were transplanted at a depth of 0.5 cm and the roots were exposed to the air. On the day when the transplantation was made, the compound of the present invention prepared according to one of Composition Examples was applied. Three weeks after the treatment, the live weight of the aerial part of the plant was measured and inhibition ratio (%) was obtained according to the following equation. Inhibition ratio (%) = (1 -(live weight of aerial part of treated plant)/(live weight of aerial part of non-treated plant)) x 100 [formula]

In another data set the test system is Monochoria vaginalis. In words: Herbicidal effect test under submerged conditions (Test Example 5). The following applies: three weeks after the treatment, rating 0-5. Further details: key: 0 indicating no influence; 5 indicating complete withering. The text has this:
(§1) [Test Example 5] Herbicidal effect test under submerged conditions
(§2) In a 1/10,000-are Wagner pot was filled alluvial soil, which was mixed with water introduced therein to establish submerged conditions at a water depth of 4 cm. Respective seeds of Monochoria vaginalis, Rotala indica and Scirpus juncoides were sowed mixedly in the pot and then treated with the compound of the present invention prepared according to one of Composition Examples. Three weeks after the treatment, the herbicidal effect on the various weeds was examined.

The next data set has as its system Rotala indica. The description is as above. The following applies: three weeks after the treatment, rating 0-5. Further details: key: 0 indicating no influence; 5 indicating complete withering.
Source text: as §1, §2

The subject of the next data set is Scirpus juncoides. Described as above. Further details: key: 0 indicating no influence; 5 indicating complete withering. The following applies: three weeks after the treatment, rating 0-5.
Source text: as §1, §2

`C=C(C)[C@@H]1C[C@@H]2O[C@]2(C)[C@H](OCc2ccccc2F)C1` [A-5, (1S, 2R, 4S, 6S)-2-(2-fluorobenzyloxy)-4-isopropenyl-1-methyl-7-oxabicyclo[4.1.0]heptane]: the results for the “the ratio of live weight to the non-treated area (%)” value in the data set with rice plant (dosage 125 g/ha) and with rice plant (dosage 250 g/ha) were 86% and 67%, respectively. Further, the “herbicidal effect, C (Monochoria vaginalis)” value in the data set with Monochoria vaginalis (dosage 125 g/ha) amounted to 3; with Monochoria vaginalis (dosage 250 g/ha), 5; in the data set with Monochoria vaginalis (dosage 500 g/ha), 5. Also, the figures for the “herbicidal effect, D (Rotala indica)” value in the data set on Rotala indica (dosage 125 g/ha), in the data set with Rotala indica (dosage 250 g/ha) and in the data set on Rotala indica (dosage 500 g/ha) were 2, 4 and 5, respectively. The “herbicidal effect, B (Scirpus juncoides)” value is reported as 4 in the data set with Scirpus juncoides (dosage 125 g/ha), 5 in the data set with Scirpus juncoides (dosage 250 g/ha) and 5 in the data set on Scirpus juncoides (dosage 500 g/ha).
